Measured values reported in ChEMBL document CHEMBL3044945, “Synthesis of 1,3,5-trisubstituted pyrazoline nucleus containing compounds and screening for antimicrobial activity” (2012).
In brackets after ≈: the same amount, converted by molar mass.

Legend:
Type in all cases: functional
Escherichia coli [1] = experiment: Antibacterial activity against Escherichia coli MTCC 1573 at 500 ug/ml after 48 hr by cup-plate method; conditions: MTCC 1573, 48 h, read-out: DIZ
Bacillus pumilus [2] = experiment: Antibacterial activity against Bacillus pumilus MTCC 1456 at 1000 ug/ml after 48 hr by cup-plate method; conditions: MTCC 1456, 48 h, read-out: DIZ
Penicillium chrysogenum [3] = experiment: Antifungal activity against Penicillium chrysogenum MTCC 161 at 1000 ug/ml after 48 hr by cup-plate method; conditions: MTCC 161, 48 h, read-out: DIZ
Pseudomonas fluorescens [4] = experiment: Antibacterial activity against Pseudomonas fluorescens MTCC 2421 at 750 ug/ml after 48 hr by cup-plate method; conditions: MTCC 2421, 48 h, read-out: DIZ
Escherichia coli [5] = experiment: Antibacterial activity against Escherichia coli MTCC 1573 at 750 ug/ml after 48 hr by cup-plate method; conditions: MTCC 1573, 48 h, read-out: DIZ
Staphylococcus aureus [6] = experiment: Antibacterial activity against Staphylococcus aureus MTCC 1430 at 750 ug/ml after 48 hr by cup-plate method; conditions: MTCC 1430, 48 h, read-out: DIZ
Penicillium chrysogenum [7] = experiment: Antifungal activity against Penicillium chrysogenum MTCC 161 at 500 ug/ml after 48 hr by cup-plate method; conditions: MTCC 161, 48 h, read-out: DIZ
Staphylococcus aureus [8] = experiment: Antibacterial activity against Staphylococcus aureus MTCC 1430 at 250 ug/ml after 48 hr by cup-plate method; conditions: MTCC 1430, 48 h, read-out: DIZ
Aspergillus niger [9] = experiment: Antifungal activity against Aspergillus niger MTCC 2546 at 500 ug/ml after 48 hr by cup-plate method; conditions: MTCC 2546, 48 h, read-out: DIZ
Pseudomonas aeruginosa [10] = experiment: Antibacterial activity against Pseudomonas aeruginosa MTCC 424 at 750 ug/ml after 48 hr by cup-plate method; conditions: MTCC 424, 48 h, read-out: DIZ
Penicillium chrysogenum [11] = experiment: Antifungal activity against Penicillium chrysogenum MTCC 161 at 250 ug/ml after 48 hr by cup-plate method; conditions: MTCC 161, 48 h, read-out: DIZ
Escherichia coli [12] = experiment: Antibacterial activity against Escherichia coli MTCC 1573 at 1250 ug/ml after 48 hr by cup-plate method; conditions: MTCC 1573, 48 h, read-out: DIZ
Pseudomonas fluorescens [13] = experiment: Antibacterial activity against Pseudomonas fluorescens MTCC 2421 after 24 to 48 hr by tube dilution method
Bacillus subtilis = experiment: Antibacterial activity against Bacillus subtilis MTCC 441 after 24 to 48 hr by tube dilution method
Escherichia coli [14] = experiment: Antibacterial activity against Escherichia coli MTCC 1573 after 24 to 48 hr by tube dilution method
Penicillium chrysogenum [15] = experiment: Antifungal activity against Penicillium chrysogenum MTCC 161 at 100 ug/ml after 48 hr by cup-plate method; conditions: MTCC 161, 48 h, read-out: DIZ
Aspergillus niger [16] = experiment: Antifungal activity against Aspergillus niger MTCC 2546 at 1000 ug/ml after 48 hr by cup-plate method; conditions: MTCC 2546, 48 h, read-out: DIZ
Staphylococcus aureus [17] = experiment: Antibacterial activity against Staphylococcus aureus MTCC 1430 at 1250 ug/ml after 48 hr by cup-plate method; conditions: MTCC 1430, 48 h, read-out: DIZ
Penicillium chrysogenum [18] = experiment: Antifungal activity against Penicillium chrysogenum MTCC 161 at 750 ug/ml after 48 hr by cup-plate method; conditions: MTCC 161, 48 h, read-out: DIZ
Aspergillus niger [19] = experiment: Antifungal activity against Aspergillus niger MTCC 2546 at 250 ug/ml after 48 hr by cup-plate method; conditions: MTCC 2546, 48 h, read-out: DIZ
Bacillus pumilus [20] = experiment: Antibacterial activity against Bacillus pumilus MTCC 1456 at 750 ug/ml after 48 hr by cup-plate method; conditions: MTCC 1456, 48 h, read-out: DIZ
Pseudomonas fluorescens [21] = experiment: Antibacterial activity against Pseudomonas fluorescens MTCC 2421 at 250 ug/ml after 48 hr by cup-plate method; conditions: MTCC 2421, 48 h, read-out: DIZ
Pseudomonas fluorescens [22] = experiment: Antibacterial activity against Pseudomonas fluorescens MTCC 2421 at 1250 ug/ml after 48 hr by cup-plate method; conditions: MTCC 2421, 48 h, read-out: DIZ
Penicillium chrysogenum [23] = experiment: Antifungal activity against Penicillium chrysogenum MTCC 161 at 1250 ug/ml after 48 hr by cup-plate method; conditions: MTCC 161, 48 h, read-out: DIZ
Pseudomonas aeruginosa [24] = experiment: Antibacterial activity against Pseudomonas aeruginosa MTCC 424 at 1000 ug/ml after 48 hr by cup-plate method; conditions: MTCC 424, 48 h, read-out: DIZ
Escherichia coli [25] = experiment: Antibacterial activity against Escherichia coli MTCC 1573 at 250 ug/ml after 48 hr by cup-plate method; conditions: MTCC 1573, 48 h, read-out: DIZ
Pseudomonas aeruginosa [26] = experiment: Antibacterial activity against Pseudomonas aeruginosa MTCC 424 at 1250 ug/ml after 48 hr by cup-plate method; conditions: MTCC 424, 48 h, read-out: DIZ
Micrococcus luteus = experiment: Antibacterial activity against Micrococcus luteus MTCC 1538 at 1000 ug/ml after 48 hr by cup-plate method; conditions: MTCC 1538, 48 h, read-out: DIZ

## NC(=O)N1N=C(c2cccc3ccccc23)CC1c1ccc([N+](=O)[O-])cc1 (stereo not drawn)
Escherichia coli [1]
  zone of inhibition at 500 µg/mL: 11 mm
Bacillus pumilus [2]
  zone of inhibition at 1000 µg/mL: 11 mm
Penicillium chrysogenum [3]
  zone of inhibition at 1000 µg/mL: 12 mm
Pseudomonas fluorescens [4]
  zone of inhibition at 750 µg/mL: 11 mm
Escherichia coli [5]
  zone of inhibition at 750 µg/mL: 12 mm
Staphylococcus aureus [6]
  zone of inhibition at 750 µg/mL: 11 mm
Penicillium chrysogenum [7]
  zone of inhibition at 500 µg/mL: 10 mm
Staphylococcus aureus [8]
  zone of inhibition at 250 µg/mL: 9 mm
Aspergillus niger [9]
  zone of inhibition at 500 µg/mL: 13 mm
Pseudomonas aeruginosa [10]
  zone of inhibition at 750 µg/mL: 12 mm
Penicillium chrysogenum [11]
  zone of inhibition at 250 µg/mL: 9 mm
Escherichia coli [12]
  zone of inhibition at 1250 µg/mL: 15 mm
Pseudomonas fluorescens [13]
  MIC: 200 µg/mL (≈ 555 µM)
Bacillus subtilis
  MIC: 15 µg/mL (≈ 41.6 µM)
Escherichia coli [14]
  MIC: 50 µg/mL (≈ 139 µM)
Penicillium chrysogenum [15]
  zone of inhibition at 100 µg/mL: 8 mm
Aspergillus niger [16]
  zone of inhibition at 1000 µg/mL: 17 mm
Staphylococcus aureus [17]
  zone of inhibition at 1250 µg/mL: 14 mm
Penicillium chrysogenum [18]
  zone of inhibition at 750 µg/mL: 11 mm
Aspergillus niger [19]
  zone of inhibition at 250 µg/mL: 11 mm
Bacillus pumilus [20]
  zone of inhibition at 750 µg/mL: 10 mm
Pseudomonas fluorescens [21]
  zone of inhibition at 250 µg/mL: 9 mm
Pseudomonas fluorescens [22]
  zone of inhibition at 1250 µg/mL: 14 mm
Penicillium chrysogenum [23]
  zone of inhibition at 1250 µg/mL: 13 mm
Pseudomonas aeruginosa [24]
  zone of inhibition at 1000 µg/mL: 13 mm
Escherichia coli [25]
  zone of inhibition at 250 µg/mL: 10 mm
Pseudomonas aeruginosa [26]
  zone of inhibition at 1250 µg/mL: 15 mm
Micrococcus luteus
  zone of inhibition at 1000 µg/mL: 10 mm
